These results are taken from ChEMBL document CHEMBL1157972, “Biotransformation of (-)-ambrox by cell suspension cultures of Actinidia deliciosa” (J Nat Prod, 2006).

pIC50: −log10 of the molar value. Active and inactive are the calls of the source. No cut-off for these calls is given here.

Broadly, the pIC50 is the negative decadic logarithm of the IC50, by convention in mol/L. Lower therefore signals a high IC50.

In the first assay the target is Thymidine phosphorylase (Escherichia coli K-12) (UniProt P07650). Description: (§1) Inhibition of Escherichia coli thymidine phosphorylase by spectrophotometry.
Sequence of Thymidine phosphorylase (Escherichia coli K-12) (P07650 whole entry, looked up): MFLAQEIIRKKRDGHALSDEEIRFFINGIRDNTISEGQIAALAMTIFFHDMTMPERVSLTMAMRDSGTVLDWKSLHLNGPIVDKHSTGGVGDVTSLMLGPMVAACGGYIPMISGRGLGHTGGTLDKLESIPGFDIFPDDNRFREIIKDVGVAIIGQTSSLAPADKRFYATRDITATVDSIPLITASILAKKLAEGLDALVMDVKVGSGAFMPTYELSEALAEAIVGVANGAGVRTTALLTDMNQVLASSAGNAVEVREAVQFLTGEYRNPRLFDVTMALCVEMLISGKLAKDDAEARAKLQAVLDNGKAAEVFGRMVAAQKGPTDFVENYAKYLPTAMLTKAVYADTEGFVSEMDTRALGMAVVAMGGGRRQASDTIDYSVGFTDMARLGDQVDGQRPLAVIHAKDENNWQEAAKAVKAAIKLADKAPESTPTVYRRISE
Regarding `CC1(C)C(=O)CC[C@]2(C)[C@H]3CCO[C@]3(C)CC[C@@H]12`, the result was inactive.

With `CC1(C)[C@@H](O)CC[C@]2(C)[C@H]3CCO[C@]3(C)CC[C@@H]12`, the result was inactive. Still for that read-out and setting: with `CC1(C)CCC[C@]2(C)[C@H]3CCO[C@]3(C)CC[C@@H]12` the entry was “inactive”.

As to `CC1(C)CC[C@H](O)[C@]2(C)[C@H]3CCO[C@]3(C)CC[C@@H]12`, the outcome was inactive. The same measure, in the same setting: for `CC1(C)[C@@H](O)C[C@H](O)[C@]2(C)[C@H]3CCO[C@]3(C)CC[C@@H]12` the value was “inactive”.

In a further assay the target is Thymidine phosphorylase (Escherichia coli K-12, UniProt P07650). Described as §1.
Sequence of Thymidine phosphorylase (P07650 whole entry): as the sequence (P07650 whole entry, looked up) above
With `CC1(C)[C@@H](O)CC[C@]2(C)[C@H]3CCO[C@]3(C)C[C@@H](O)[C@@H]12`, the negative logarithm of the IC50 (pIC50) is 4.09. Consider `CC1(C)CC[C@H](O)[C@]2(C)[C@H]3CCO[C@]3(C)C[C@@H](O)[C@@H]12`, for which the negative logarithm of the IC50 (pIC50) is 4.14.
